From patent publication US20250064890A1, “PROTEIN COMPOSITIONS FOR THE TREATMENT OF INFLAMMATORY DISEASES” (Unichem Laboratories Limited, priority 2021, published 2025)

Experiments:
Format in all cases: cell-based, human
[1] = test system: oral (buccal) mucosa cells (TR146); assay: Cytoprotective effect against 5-FU induced damage (MTT)
Protocol: The cell viability was assessed by (MTT) assay and compared with positive control (Cells treated with Amifostine, EGCG and EGF and negative assay (untreated cells), wherein the control was the cells that underwent chemotherapy/radiotherapy.
The protective effect of the recombinant lectin on survival of TR146 cells against 5-FU induced damage was determined using following calculations:
The viability of cells was determined as: % Cell viability=(100−% Cytotoxicity); • where, the percentage cytotoxicity corresponding to each treatment was calculated as: % Cytotoxicity=[(R−X)/R]*100, wherein X=Absorbance of cells treated with 5-FU or radiation damage/TI+5-FU, R=Absorbance of Control cells (Untreated) and Percentage protection was calculated as:
{(Absorbance of TI+5-FU or radiation)−(Absorbance of 5-FU or radiation alone)/(Absorbance of Untreated)−(Absorbance of 5-FU alone)}*100

[2] = test system: oral (buccal) mucosa cells (TR146); assay: Restoration of mitochondrial membrane potential (JC-1) against 5-FU induced damage; conditions: for MMP: mitochondrial membrane potential, red/green JC-1 fluorescence ratio
Protocol: (§1) Oral buccal mucosal cells (TR146) were incubated overnight in 5% CO2 incubator at 37° C. for 24 h. […] After 24 h of treatment, cells were exposed to damage (5-FU 5 mM) for 1.25 h for chemotherapy induced inflammation and exposed to gamma radiation (3.5 kGy) using Cobalt 60 for radiation induced inflammation. After the exposure, the anti-apoptotic effect of SEQ ID NO 2 was determined by restoration of mitochondrial membrane depolarization by JC-1 staining and reduction in apoptotic cell populations (Annexin positive and subG0/G1 cells in cell cycle analysis).
(§2) After incubation, the supernatants were discarded and 100 μl of JC1-dye solution (prepared by diluting 1 mM DMSO stock into 10 μM in 1×PBS) was added to each well. The cells were then incubated with the dye in CO2 incubator at 37° C. for 15 min, after which the supernatant was removed, and the cells were washed twice with 1×PBS. 100 μl of 1×PBS was finally added to each well. Red fluorescence (excitation 550 nm, emission 600 nm) and green fluorescence (excitation 485 nm, emission 535 nm) were measured using Biotek Synergy HT plate reader. The mitochondrial membrane potential (Δψm) was calculated as the ratio of intensity of red fluorescence to intensity of green fluorescence.
(§3) The percentage increase/restoration in mitochondrial membrane potential (MMP) was calculated as: % Increase=[(R−X)/R]*100 • Where, X=Δψm corresponding to TI+5-FU treated cells or TI+radiation treated cells; R=Δψm corresponding to control cells (FU damaged or Radiation damaged alone)

[3] = test system: oral (buccal) mucosa cells (TR146); assay: Restoration of mitochondrial membrane potential (JC-1) against radiation induced damage; conditions: for MMP: red/green JC-1 fluorescence ratio
Protocol: as §1, §2, §3

IL-12/IL-23p40 = assay: Multiplex analysis, chemotherapy (5-FU), TR146
Protocol: (§4) Oral buccal mucosal cells (TR146) cells were incubated overnight at 37° C. in 5% CO2 incubator. […] The cells were then stimulated with 5-FU (10 mM) for another 24h for chemotherapy and with gamma radiation (3.5 kGy) using Cobalt 60 for radiotherapy. After 24 h, cell culture supernatants were collected from each well and stored at −20° C. till multiplex analysis. For NF-kB estimations, cell lysates were prepared. Levels of biomarkers were estimated using Magpix® multiplex machine. The cells treated with Amifostine (along with 5-FU or radiation) were considered as positive control (PC). Untreated cells (5-FU or radiation alone treated) were used as negative control (NC).
(§5) The percent modulation in each sample was determined as follows:
(§6) [{Concentration of biomarkers (pg/ml) in Control cells (5-FU or radiation alone treated)−Concentration of biomarkers (pg/ml) in SEQ ID NO: 2+5-FU or radiation treated cells)}/Concentration of biomarkers (pg/ml) in Control cells (5-FU or radiation alone treated)]*100

IL-1β [4] = assay: Multiplex analysis, chemotherapy (5-FU), TR146
Protocol: as §4, §5, §6

IL-6 [5] = assay: Multiplex analysis, chemotherapy (5-FU), TR146
Protocol: as §4, §5, §6

MMP-3 [6] = assay: Multiplex analysis, chemotherapy (5-FU), TR146
Protocol: as §4, §5, §6

TNF-α [7] = assay: Multiplex analysis, chemotherapy (5-FU), TR146
Protocol: as §4, §5, §6

VEGF [8] = assay: Multiplex analysis, chemotherapy (5-FU), TR146
Protocol: as §4, §5, §6

CCL-2 = assay: Multiplex analysis, radiotherapy, TR146
Protocol: as §4, §5, §6

IL-1β [9] = assay: Multiplex analysis, radiotherapy, TR146
Protocol: as §4, §5, §6

IL-6 [10] = assay: Multiplex analysis, radiotherapy, TR146
Protocol: as §4, §5, §6

MMP-3 [11] = assay: Multiplex analysis, radiotherapy, TR146
Protocol: as §4, §5, §6

MMP-8 = assay: Multiplex analysis, radiotherapy, TR146
Protocol: as §4, §5, §6

RAGE = assay: Multiplex analysis, radiotherapy, TR146
Protocol: as §4, §5, §6

TNF-α [12] = assay: Multiplex analysis, radiotherapy, TR146
Protocol: as §4, §5, §6

VEGF [13] = assay: Multiplex analysis, radiotherapy, TR146
Protocol: as §4, §5, §6

[14] = 0.1 μg/ml + Radiation (3.5 kGy)

Q: `NCCCNCCSP(=O)(O)O` [Amifostine, reference compound] was tested. Which “% Protection” value ([1]; 1 μg/ml + 5-FU (5 mM)) did it give?
A: 4.1%

Q: What about the “% Protection” value ([1]; 5 μg/ml + 5-FU (5 mM)) of the same molecule?
A: 28.8%

Q: What about the “% Protection” value ([1]; 10 μg/ml + 5-FU (5 mM)) of the same molecule?
A: 55.2%

Q: What about the “% Protection” value ([1]; 25 μg/ml + 5-FU (5 mM)) of the same molecule?
A: 37.5%

Q: And the “% Increase in MMP (with respect to control)” value (shortened to “% Increase in MMP”) ([2]; 1 μg/ml + 5FU)?
A: 68.7%

Q: What about the MMP ([2]; 1 μg/ml + 5FU) of the same molecule?
A: 14.3

Q: What about the “% Increase in MMP” value ([2]; 5 μg/ml + 5FU) of the same molecule?
A: 64.9%

Q: What about the MMP ([2]; 5 μg/ml + 5FU) of the same molecule?
A: 14

Q: What about the “% Increase in MMP” value ([2]; 10 μg/ml + 5FU) of the same molecule?
A: 85.3%

Q: And the MMP ([2]; 10 μg/ml + 5FU)?
A: 15.7

Q: And the “% Increase in MMP” value ([2]; 25 μg/ml + 5FU)?
A: 90%

Q: What about the MMP ([2]; 25 μg/ml + 5FU) of the same molecule?
A: 16.1

Q: What about the “% Increase in MMP” value ([2]; 50 μg/ml + 5FU) of the same molecule?
A: 105.2%

Q: And the MMP ([2]; 50 μg/ml + 5FU)?
A: 17.4

Q: What about the “% Increase in MMP” value [3, 14] of the same molecule?
A: 28.2%

Q: What about the MMP [3, 14] of the same molecule?
A: 5.90

Q: And the “% Increase in MMP” value ([3]; 1 μg/ml + Radiation (3.5 kGy))?
A: 39.7%

Q: And the MMP ([3]; 1 μg/ml + Radiation (3.5 kGy))?
A: 6.43

Q: And the “% Increase in MMP” value ([3]; 10 μg/ml + Radiation (3.5 kGy))?
A: 35.2%

Q: What about the MMP ([3]; 10 μg/ml + Radiation (3.5 kGy)) of the same molecule?
A: 6.23

Q: What about the “Percentage Inhibition IL-12/IL-23p40” value (IL-12/IL-23p40; 1 μg/ml + 5-FU (10 mM)) of the same molecule?
A: 0%

Q: And the “Percentage Inhibition IL-12/IL-23p40” value (IL-12/IL-23p40; 10 μg/ml + 5-FU (10 mM))?
A: −2.1%

Q: What about the “Percentage Inhibition IL-12/IL-23p40” value (IL-12/IL-23p40; 50 μg/ml + 5-FU (10 mM)) of the same molecule?
A: 13.4%

Q: And the “Percentage Inhibition IL-1β” value (IL-1β [4]; 1 μg/ml + 5-FU (10 mM))?
A: 14.2%

Q: And the “Percentage Inhibition IL-1β” value (IL-1β [4]; 10 μg/ml + 5-FU (10 mM))?
A: 19.5%

Q: What about the “Percentage Inhibition IL-1β” value (IL-1β [4]; 50 μg/ml + 5-FU (10 mM)) of the same molecule?
A: 46.6%

Q: And the “Percentage Inhibition IL-6” value (IL-6 [5]; 1 μg/ml + 5-FU (10 mM))?
A: 7.2%

Q: What about the “Percentage Inhibition IL-6” value (IL-6 [5]; 10 μg/ml + 5-FU (10 mM)) of the same molecule?
A: 8.9%

Q: What about the “Percentage Inhibition IL-6” value (IL-6 [5]; 50 μg/ml + 5-FU (10 mM)) of the same molecule?
A: 35.2%

Q: What about the “Percentage Inhibition MMP-3” value (MMP-3 [6]; 1 μg/ml + 5-FU (10 mM)) of the same molecule?
A: 22.6%

Q: What about the “Percentage Inhibition MMP-3” value (MMP-3 [6]; 10 μg/ml + 5-FU (10 mM)) of the same molecule?
A: 23.4%

Q: And the “Percentage Inhibition MMP-3” value (MMP-3 [6]; 50 μg/ml + 5-FU (10 mM))?
A: 26.8%

Q: What about the “Percentage Inhibition TNF-α” value (TNF-α [7]; 1 μg/ml + 5-FU (10 mM)) of the same molecule?
A: 10%

Q: And the “Percentage Inhibition TNF-α” value (TNF-α [7]; 10 μg/ml + 5-FU (10 mM))?
A: 13.3%

Q: And the “Percentage Inhibition TNF-α” value (TNF-α [7]; 50 μg/ml + 5-FU (10 mM))?
A: 10%

Q: What about the “Percentage Inhibition VGEF” value (VEGF [8]; 1 μg/ml + 5-FU (10 mM)) of the same molecule?
A: 27.9%

Q: What about the “Percentage Inhibition VGEF” value (VEGF [8]; 10 μg/ml + 5-FU (10 mM)) of the same molecule?
A: 35.4%

Q: What about the “Percentage Inhibition VGEF” value (VEGF [8]; 50 μg/ml + 5-FU (10 mM)) of the same molecule?
A: 39.6%

Q: What about the “Percentage Inhibition CCL-2” value (CCL-2; [14]) of the same molecule?
A: 23.1%

Q: And the “Percentage Inhibition CCL-2” value (CCL-2; 10 μg/ml + Radiation (3.5 kGy))?
A: 0.1%

Q: What about the “Percentage Inhibition IL-1β” value (IL-1β [9]; [14]) of the same molecule?
A: 10.7%

Q: What about the “Percentage Inhibition IL-1β” value (IL-1β [9]; 10 μg/ml + Radiation (3.5 kGy)) of the same molecule?
A: 12.1%

Q: And the “Percentage Inhibition IL-6” value (IL-6 [10]; [14])?
A: 14.2%

Q: What about the “Percentage Inhibition IL-6” value (IL-6 [10]; 10 μg/ml + Radiation (3.5 kGy)) of the same molecule?
A: 1.3%

Q: What about the “Percentage Inhibition MMP-3” value (MMP-3 [11]; [14]) of the same molecule?
A: 51.9%

Q: What about the “Percentage Inhibition MMP-3” value (MMP-3 [11]; 10 μg/ml + Radiation (3.5 kGy)) of the same molecule?
A: 47.4%

Q: What about the “Percentage Inhibition MMP-8” value (MMP-8; [14]) of the same molecule?
A: 3.6%

Q: And the “Percentage Inhibition MMP-8” value (MMP-8; 10 μg/ml + Radiation (3.5 kGy))?
A: 13%

Q: What about the “Percentage Inhibition RAGE” value (RAGE; [14]) of the same molecule?
A: 45.1%

Q: And the “Percentage Inhibition RAGE” value (RAGE; 10 μg/ml + Radiation (3.5 kGy))?
A: 40.3%

Q: What about the “Percentage Inhibition TNF-α” value (TNF-α [12]; [14]) of the same molecule?
A: 49.3%

Q: And the “Percentage Inhibition TNF-α” value (TNF-α [12]; 10 μg/ml + Radiation (3.5 kGy))?
A: 44.3%

Q: And the “Percentage Inhibition VGEF” value (VEGF [13]; [14])?
A: 10.3%

Q: What about the “Percentage Inhibition VGEF” value (VEGF [13]; 10 μg/ml + Radiation (3.5 kGy)) of the same molecule?
A: 7.2%
